Experimental data as given in patent publication US20230123334A1, “AMINO LIPID COMPOUND, PREPARATION METHOD THEREFOR, AND APPLICATION THEREOF” (SHENZHEN SHENXIN BIOTECHNOLOGY CO., LTD., priority 2020, published 2023).

The compounds below were run on HEK293 cells (assay: Preliminary screening as mRNA vectors, EGFP mRNA transfection of HEK293 cells). Conditions: EGFP mRNA 50 ng per well, 96-well plates; percentage of GFP fluorescent cells relative to total number of cells (Hoechst).
Assay type: cell-based
Outline: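 Screening format: EGFP mRNA transfection (50 ng/well) into HEK293 in 10% FBS-supplemented DMEM. Percent green fluorescent cells, normalised to Hoechst nuclear count, gave the value; Lipofectamine2000 was the reference transfectant.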

Structure (SMILES)	Absolute mRNA transfection efficiency in HEK293 cells [%]
CCCCCCCCCCCCCCCCSc1nc(NCCCCCCCCCCCC)nc(NCC2CCN(C)CC2)n1 [Compound D10S16N12]	9.2
CCCCCCCCCCCCCCCCSc1nc(NCCCCCCCCCCCCC)nc(NCC2CCN(C)CC2)n1 [Compound D10S16N13]	7.1
CCCCCCCCCCCCCCCCSc1nc(NCCCCCCCCCCCCCCC)nc(NCC2CCN(C)CC2)n1 [Compound D10S16N15]	2.6
CCCCCCCCCCCCCCCCNc1nc(NCC2CCN(C)CC2)nc(SCCCCCCCCCCCCCCCC)n1 [Compound D10S16N16]	2.8
CCCCCCCCCCCCCCCCCCNc1nc(NCC2CCN(C)CC2)nc(SCCCCCCCCCCCCCCCC)n1 [Compound D10S16N18]	3.0
CCCCCCCCCCCCCCCCCCSc1nc(NCCCCCC)nc(NCC2CCN(C)CC2)n1 [Compound D10S18N6]	58.8
CCCCCCCCCCCCCCCCCCSc1nc(NCCCCCCC)nc(NCC2CCN(C)CC2)n1 [Compound D10S18N7]	45.8
CCCCCCCCCCCCCCCCCCSc1nc(NCCCCCCCC)nc(NCC2CCN(C)CC2)n1 [Compound D10S18N8]	16.8
CCCCCCCCCCCCCCCCCCSc1nc(NCCCCCCCCC)nc(NCC2CCN(C)CC2)n1 [Compound D10S18N9]	8.9
CCCCCCCCCCCCCCCCCCSc1nc(NCCCCCCCCCCC)nc(NCC2CCN(C)CC2)n1 [Compound D10S18N11]	4.5
CCCCCCCCCCCCCCCCCCSc1nc(NCCCCCCCCCCCC)nc(NCC2CCN(C)CC2)n1 [Compound D10S18N12]	2.0
CCCCCCCCCCCCCCCCCCSc1nc(NCCCCCCCCCCCCC)nc(NCC2CCN(C)CC2)n1 [Compound D10S18N13]	2.9
CCCCCCCCCCCCCCCCCCSc1nc(NCCCCCCCCCCCCCCC)nc(NCC2CCN(C)CC2)n1 [Compound D10S18N15]	0.2
CCCCCCCCCCCCCCCCCCSc1nc(NCCCCCCCCCCCCCCCC)nc(NCC2CCN(C)CC2)n1 [Compound D10S18N16]	0.4
CCCCCCCCCCCCCCCCCCNc1nc(NCC2CCN(C)CC2)nc(SCCCCCCCCCCCCCCCCCC)n1 [Compound D10S18N18]	0.1
CCCCCCCCCCCCN(CCCCCCCCCCCC)c1nc(NCCN(C)C)nc(SCCCCCC)n1 [D1S6^2N12]	0.7
CCCCCCCCCCCCN(CCCCCCCCCCCC)c1nc(NCCN(C)C)nc(SCCCCCCC)n1 [D1S7^2N12]	0.7
CCCCCCCCCCCCN(CCCCCCCCCCCC)c1nc(NCCN(C)C)nc(SCCCCCCCC)n1 [D1S8^2N12]	0.4
CCCCCCCCCCCCN(CCCCCCCCCCCC)c1nc(NCCN(C)C)nc(SCCCCCCCCC)n1 [D1S9^2N12]	1.0
CCCCCCCCCCCCN(CCCCCCCCCCCC)c1nc(NCCN(C)C)nc(SCCCCCCCCCC)n1 [D1S10^2N12]	0.4
CCCCCCCCCCCCN(CCCCCCCCCCCC)c1nc(NCCN(C)C)nc(SCCCCCCCCCCC)n1 [D1S11^2N12]	0.0

Structure (SMILES)	Absolute mRNA transfection efficiency in HEK293 cells [%]
CCCCCCCCCCCCSc1nc(NCCN(C)C)nc(N(CCCCCCCCCCCC)CCCCCCCCCCCC)n1 [D1S12^2N12]	2.6
CCCCCCCCCCCCCCSc1nc(NCCN(C)C)nc(N(CCCCCCCCCCCC)CCCCCCCCCCCC)n1 [D1S14^2N12]	0.1
CCCCCCCCCCCCCCCSc1nc(NCCN(C)C)nc(N(CCCCCCCCCCCC)CCCCCCCCCCCC)n1 [D1S15^2N12]	0.3
CCCCCCCCCCCCCCCCSc1nc(NCCN(C)C)nc(N(CCCCCCCCCCCC)CCCCCCCCCCCC)n1 [D1S16^2N12]	0.0
CCCCCCCCCCCCCCCCCCSc1nc(NCCN(C)C)nc(N(CCCCCCCCCCCC)CCCCCCCCCCCC)n1 [D1S18^2N12]	0.0
CCCCCCCCCCCCN(CCCCCCCCCCCC)c1nc(NCCN2CCOCC2)nc(SCCCCCC)n1 [D2S6^2N12]	0.0
CCCCCCCCCCCCN(CCCCCCCCCCCC)c1nc(NCCN2CCOCC2)nc(SCCCCCCC)n1 [D2S7^2N12]	0.4
CCCCCCCCCCCCN(CCCCCCCCCCCC)c1nc(NCCN2CCOCC2)nc(SCCCCCCCC)n1 [D2S8^2N12]	0.1
CCCCCCCCCCCCN(CCCCCCCCCCCC)c1nc(NCCN2CCOCC2)nc(SCCCCCCCCC)n1 [D2S9^2N12]	0.1
CCCCCCCCCCCCN(CCCCCCCCCCCC)c1nc(NCCN2CCOCC2)nc(SCCCCCCCCCC)n1 [D2S10^2N12]	0.0
CCCCCCCCCCCCN(CCCCCCCCCCCC)c1nc(NCCN2CCOCC2)nc(SCCCCCCCCCCC)n1 [D2S11^2N12]	0.3
CCCCCCCCCCCCSc1nc(NCCN2CCOCC2)nc(N(CCCCCCCCCCCC)CCCCCCCCCCCC)n1 [D2S12^2N12]	0.1
CCCCCCCCCCCCCCSc1nc(NCCN2CCOCC2)nc(N(CCCCCCCCCCCC)CCCCCCCCCCCC)n1 [D2S14^2N12]	0.0
CCCCCCCCCCCCCCCSc1nc(NCCN2CCOCC2)nc(N(CCCCCCCCCCCC)CCCCCCCCCCCC)n1 [D2S15^2N12]	0.4
CCCCCCCCCCCCCCCCSc1nc(NCCN2CCOCC2)nc(N(CCCCCCCCCCCC)CCCCCCCCCCCC)n1 [D2S16^2N12]	0.7
CCCCCCCCCCCCCCCCCCSc1nc(NCCN2CCOCC2)nc(N(CCCCCCCCCCCC)CCCCCCCCCCCC)n1 [D2S18^2N12]	0.0
CCCCCCCCCCCCN(CCCCCCCCCCCC)c1nc(NCCN2CCCC2)nc(SCCCCCC)n1 [D3S6^2N12]	0.4
CCCCCCCCCCCCN(CCCCCCCCCCCC)c1nc(NCCN2CCCC2)nc(SCCCCCCC)n1 [D3S7^2N12]	0.4
CCCCCCCCCCCCN(CCCCCCCCCCCC)c1nc(NCCN2CCCC2)nc(SCCCCCCCC)n1 [D3S8^2N12]	0.9
CCCCCCCCCCCCN(CCCCCCCCCCCC)c1nc(NCCN2CCCC2)nc(SCCCCCCCCC)n1 [D3S9^2N12]	1.3
CCCCCCCCCCCCN(CCCCCCCCCCCC)c1nc(NCCN2CCCC2)nc(SCCCCCCCCCC)n1 [D3S10^2N12]	0.1

Structure (SMILES)	Absolute mRNA transfection efficiency in HEK293 cells [%]
CCCCCCCCCCCCN(CCCCCCCCCCCC)c1nc(NCCN2CCCC2)nc(SCCCCCCCCCCC)n1 [D3S11^2N12]	0.0
CCCCCCCCCCCCSc1nc(NCCN2CCCC2)nc(N(CCCCCCCCCCCC)CCCCCCCCCCCC)n1 [D3S12^2N12]	2.2
CCCCCCCCCCCCCCSc1nc(NCCN2CCCC2)nc(N(CCCCCCCCCCCC)CCCCCCCCCCCC)n1 [D3S14^2N12]	0.2
CCCCCCCCCCCCCCCSc1nc(NCCN2CCCC2)nc(N(CCCCCCCCCCCC)CCCCCCCCCCCC)n1 [D3S15^2N12]	1.7
CCCCCCCCCCCCCCCCSc1nc(NCCN2CCCC2)nc(N(CCCCCCCCCCCC)CCCCCCCCCCCC)n1 [D3S16^2N12]	0.2
CCCCCCCCCCCCCCCCCCSc1nc(NCCN2CCCC2)nc(N(CCCCCCCCCCCC)CCCCCCCCCCCC)n1 [D3S18^2N12]	0.1
CCCCCCCCCCCCN(CCCCCCCCCCCC)c1nc(NCCN2CCCCC2)nc(SCCCCCC)n1 [D4S6^2N12]	2.2
CCCCCCCCCCCCN(CCCCCCCCCCCC)c1nc(NCCN2CCCCC2)nc(SCCCCCCC)n1 [D4S7^2N12]	1.0
CCCCCCCCCCCCN(CCCCCCCCCCCC)c1nc(NCCN2CCCCC2)nc(SCCCCCCCC)n1 [D4S8^2N12]	1.1
CCCCCCCCCCCCN(CCCCCCCCCCCC)c1nc(NCCN2CCCCC2)nc(SCCCCCCCCC)n1 [D4S9^2N12]	0.1
CCCCCCCCCCCCN(CCCCCCCCCCCC)c1nc(NCCN2CCCCC2)nc(SCCCCCCCCCC)n1 [D4S10^2N12]	0.1
CCCCCCCCCCCCN(CCCCCCCCCCCC)c1nc(NCCN2CCCCC2)nc(SCCCCCCCCCCC)n1 [D4S11^2N12]	0.5
CCCCCCCCCCCCSc1nc(NCCN2CCCCC2)nc(N(CCCCCCCCCCCC)CCCCCCCCCCCC)n1 [D4S12^2N12]	0.5
CCCCCCCCCCCCCCSc1nc(NCCN2CCCCC2)nc(N(CCCCCCCCCCCC)CCCCCCCCCCCC)n1 [D4S14^2N12]	0.2
CCCCCCCCCCCCCCCSc1nc(NCCN2CCCCC2)nc(N(CCCCCCCCCCCC)CCCCCCCCCCCC)n1 [D4S15^2N12]	0.2
CCCCCCCCCCCCCCCCSc1nc(NCCN2CCCCC2)nc(N(CCCCCCCCCCCC)CCCCCCCCCCCC)n1 [D4S16^2N12]	0.3
CCCCCCCCCCCCCCCCCCSc1nc(NCCN2CCCCC2)nc(N(CCCCCCCCCCCC)CCCCCCCCCCCC)n1 [D4S18^2N12]	0.3
CCCCCCCCCCCCN(CCCCCCCCCCCC)c1nc(NCCN2CCN(C)CC2)nc(SCCCCCC)n1 [D5S6^2N12]	0.3
CCCCCCCCCCCCN(CCCCCCCCCCCC)c1nc(NCCN2CCN(C)CC2)nc(SCCCCCCC)n1 [D5S7^2N12]	0.2
CCCCCCCCCCCCN(CCCCCCCCCCCC)c1nc(NCCN2CCN(C)CC2)nc(SCCCCCCCC)n1 [D5S8^2N12]	0.9
